Measured values from patent US20050245399A1, “Pyrazole derivatives as herbicidal compositions containing them” (ISHIHARA SANGYO KAISHA, LTD., priority 2004, published 2005).

Assays:
Format in all cases: in vivo
[1] = system: green foxtail (Setaria viridis L.), SETVI; assay: Test Example 2 post-emergence (foliage treatment) herbicidal activity, SETVI; details: 63 g a.i./ha
Summary of the method: (§1)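 A small sprayer delivered the diluted WP or EC formulation (500 L/ha water, 0.1% v/v spreader) over emerged seedlings in upland soil pots. Damage relative to untreated plants was graded visually from 0 to 100% three weeks or so later (days 20-23).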

[2] = system: soybean (Glycine max Merr.): GLXMA; assay: Test Example 1 pre-emergence herbicidal activity, GLXMA; details: visually observed 20th to 23rd day after application
Summary of the method: (§2)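 Percent growth control, rated visually 20–23 d after a pre-emergence spray applied 1 d post-sowing; compound formulated as WP or EC in 500 L/ha water at a predetermined a.i. amount.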

[3] = system: prickly sida (Sida spinosa L.): SEDSP; assay: Test Example 1 pre-emergence herbicidal activity, SIDSP; details: visually observed 20th to 23rd day after application
Summary of the method: as §2

[4] = system: prickly sida (Sida spinosa L.), SIDSP; assay: Test Example 2 post-emergence (foliage treatment) herbicidal activity, SIDSP; details: 63 g a.i./ha
Summary of the method: as §1

[5] = system: redroot pigweed (Amaranthus retroflexus L.): AMARE; assay: Test Example 1 pre-emergence herbicidal activity, AMARE; details: visually observed 20th to 23rd day after application
Summary of the method: as §2

[6] = system: wheat (Triticum aestivum L.), TRZAX; assay: Test Example 2 post-emergence (foliage treatment) herbicidal activity, TRZAX; details: 63 g a.i./ha
Summary of the method: as §1

[7] = system: wheat (Triticum aestivum L.): TRZAX; assay: Test Example 1 pre-emergence herbicidal activity, TRZAX; details: visually observed 20th to 23rd day after application
Summary of the method: as §2

[8] = system: green foxtail (Setaria viridis L.): SETVI; assay: Test Example 1 pre-emergence herbicidal activity, SETVI; details: visually observed 20th to 23rd day after application
Summary of the method: as §2

[9] = system: crabgrass (Digitaria sanguinalis L.): DIGSA; assay: Test Example 1 pre-emergence herbicidal activity, DIGSA; details: visually observed 20th to 23rd day after application
Summary of the method: as §2

[10] = system: soybean (Glycine max Merr.), GLXMA; assay: Test Example 2 post-emergence (foliage treatment) herbicidal activity, GLXMA; details: 63 g a.i./ha
Summary of the method: as §1

[11] = system: rice (Oryza sativa L.): ORYSA; assay: Test Example 1 pre-emergence herbicidal activity, ORYSA; details: visually observed 20th to 23rd day after application
Summary of the method: as §2

[12] = system: corn (Zea mays L.): ZEAMX; assay: Test Example 1 pre-emergence herbicidal activity, ZEAMX; details: visually observed 20th to 23rd day after application
Summary of the method: as §2

[13] = system: crabgrass (Digitaria sanguinalis L.), DIGSA; assay: Test Example 2 post-emergence (foliage treatment) herbicidal activity, DIGSA; details: 63 g a.i./ha
Summary of the method: (§3)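 Each species was evaluated for growth suppression by eye, 0% matching untreated and 100% meaning death, some 20 to 23 days after a single post-emergence foliar treatment applied in 500 L/ha of water carrying 0.1% (v/v) agricultural spreader.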

[14] = system: redroot pigweed (Amaranthus retroflexus L.), AMARE; assay: Test Example 2 post-emergence (foliage treatment) herbicidal activity, AMARE; details: 63 g a.i./ha
Excerpt: Upland field soil was put into a 1/170,000 ha pot, and seeds of various plants were sown. Then, when the plants reached predetermined leaf stages {1. barnyardgrass (Echinochloa crus-galli L.), ECHCG: 1.1-2.1 leaf stage, 2. crabgrass (Digitaria sanguinalis L.), DIGSA: 1.0-2.0 leaf stage, 3. green foxtail (Setaria viridis L.), SETVI: 1.0-2.2 leaf stage, 4. redroot pigweed (Amaranthus retroflexus L.), AMARE: 0.1-1.5 leaf stage, 5. prickly sida (Sida spinosa L.), SIDSP: 0.1-0.6 leaf stage, 6. velvetleaf (Abutilon theophrasti), ABUTH: 0.1-0.6 leaf stage, 7. common cocklebur (Xanthium strumarium L.), XANST: 0.1 leaf stage, 8. rice (Oryza sativa L.), ORYSA; 1.0-2 leaf stage, 9. wheat (Triticum aestivum L.), TRZAX: 2.3-3.5 leaf stage, 10. corn (Zea mays L.), ZEAMXN 2.1-2.6 leaf stage, 11. soybean (Glycine max Merr.), GLXMA: primary leaf stage}, a wettable powder or emulsifiable concentrate having the compound of the present invention formulated in accordance with a usual formulation method, was weighed so that the active ingredient would be a predetermined amount, and diluted with water in an amount of 500 L/ha. To the diluted solution, 0.1% (v/v) of an agricultural spreader was added. The herbicide adjusted was applied by a small size sprayer for foliage treatment. On the 20th to 23rd day after the application of the herbicide, the growth of the respective plants was visually observed, and the herbicidal effects were evaluated by growth controlling degrees (%) ranging from 0 (equivalent to the untreated control) to 100 (complete kill), whereby the results shown in Table 5, were obtained. Compound Nos. in Table 5 correspond to Compound Nos. in Table 1 and 2 given hereinbefore.

[15] = system: barnyardgrass (Echinochloa crus-galli L.): ECHCG; assay: Test Example 1 pre-emergence herbicidal activity, ECHCG; details: visually observed 20th to 23rd day after application
Summary of the method: as §2

[16] = system: rice (Oryza sativa L.), ORYSA; assay: Test Example 2 post-emergence (foliage treatment) herbicidal activity, ORYSA; details: 63 g a.i./ha
Summary of the method: as §3

[17] = system: velvetleaf (Abutilon theophrasti), ABUTH; assay: Test Example 2 post-emergence (foliage treatment) herbicidal activity, ABUTH; details: 63 g a.i./ha
Summary of the method: as §1

[18] = system: barnyardgrass (Echinochloa crus-galli L.), ECHCG; assay: Test Example 2 post-emergence (foliage treatment) herbicidal activity, ECHCG; details: 63 g a.i./ha
Summary of the method: as §3

[19] = system: corn (Zea mays L.), ZEAMX; assay: Test Example 2 post-emergence (foliage treatment) herbicidal activity, ZEAMX; details: 63 g a.i./ha
Summary of the method: as §1

[20] = system: velvetleaf (Abutilon theophrasti): ABUTH; assay: Test Example 1 pre-emergence herbicidal activity, ABUTH; details: visually observed 20th to 23rd day after application
Summary of the method: as §2

Row | Structure (SMILES) | growth controlling degree, SETVI [1] | Pre-emergence Herbicidal Activity GLXMA (growth controlling degree) ([2]; Rate 63 g a.i./ha) | Pre-emergence Herbicidal Activity SIDSP (growth controlling degree) ([3]; Rate 63 g a.i./ha) | growth controlling degree, SIDSP [4] | Pre-emergence Herbicidal Activity AMARE (growth controlling degree) ([5]; Rate 63 g a.i./ha) | growth controlling degree, TRZAX [6] | Pre-emergence Herbicidal Activity TRZAX (growth controlling degree) ([7]; Rate 63 g a.i./ha) | Pre-emergence Herbicidal Activity SETVI (growth controlling degree) ([8]; Rate 63 g a.i./ha) | Pre-emergence Herbicidal Activity DIGSP (growth controlling degree) ([9]; Rate 63 g a.i./ha) | growth controlling degree, GLXMA [10] | Pre-emergence Herbicidal Activity ORYSA (growth controlling degree) ([11]; Rate 63 g a.i./ha) | Pre-emergence Herbicidal Activity ZEAMX (growth controlling degree) ([12]; Rate 63 g a.i./ha) | growth controlling degree, DIGSP [13] | growth controlling degree, AMARE [14] | Pre-emergence Herbicidal Activity ECHCG (growth controlling degree) ([15]; Rate 63 g a.i./ha) | growth controlling degree, ORYSA [16] | growth controlling degree, ABUTH [17] | growth controlling degree, ECHCO [18] | growth controlling degree, ZEAMX [19] | Pre-emergence Herbicidal Activity ABUTH (growth controlling degree) ([20]; Rate 63 g a.i./ha) | also measured
1 | C#CCOC(=O)Nc1c(OC)c(Cl)cc(F)c1-c1nn(C)c(OC(F)F)c1Cl [Compound 1-74] | 100% | 0% | 100% | 100% | 100% | 50% | 30% | 100% | 100% | 60% | 50% | 10% | 70% | 100% | 90% | 95% | 100% | 98% | 30% | 100% | 
2 | COc1c(Cl)cc(F)c(-c2nn(C)c(OC(F)F)c2Cl)c1NC(=O)C=Cc1ccccc1C [Compound 1-253] | 100% | 0% | 30% | 100% | 100% | 50% | 0% | 50% | 70% | 80% | 10% | 0% | 30% | 100% | 20% | 70% | 100% | 80% | 40% | 40% | 
3 | COc1c(Cl)cc(F)c(-c2nn(C)c(OC(F)F)c2Cl)c1NC(=O)OC(C)C [Compound 1-75] | 100% | 0% | 60% | 100% | 100% | 50% | 30% | 100% | 100% | 60% | 30% | 10% | 50% | 100% | 70% | 80% | 100% | 100% | 50% | 100% | 
4 | COc1c(Cl)cc(F)c(-c2nn(C)c(OC(F)F)c2Cl)c1NC(=O)C(C)=Cc1ccccc1 [Compound 1-251] | 60% | 0% | 20% | 95% | 100% | 20% | 0% | 20% | 20% | 40% | 10% | 0% | 70% | 100% | 0% | 10% | 95% | 60% | 10% | 30% | 
5 | COc1c(Cl)cc(F)c(-c2nn(C)c(OC(F)F)c2Cl)c1NC(=O)C(C)(C)Oc1ccccc1 [Compound 1-38] | 50% | 0% | 0% | 100% | 20% | 10% | 0% | 20% | 10% | 30% | 0% | 0% | 20% | 100% | 0% | 40% | 100% | 50% | 10% | 0% | 
6 | CCOC(=O)C(C)N(C=O)c1c(OC)c(Cl)cc(F)c1-c1nn(C)c(OC(F)F)c1Cl (stereo not drawn) [Compound 1-42] | 50% |  |  | 70% |  | 20% |  |  |  | 10% |  |  | 30% | 100% |  | 20% | 95% | 30% | 0% |  | Pre-emergence Herbicidal Activity GLXMA (growth controlling degree) ([2]; Rate 125 g a.i./ha): 0%; Pre-emergence Herbicidal Activity SIDSP (growth controlling degree) ([3]; Rate 125 g a.i./ha): 0%; Pre-emergence Herbicidal Activity AMARE (growth controlling degree) ([5]; Rate 125 g a.i./ha): 0%; Pre-emergence Herbicidal Activity TRZAX (growth controlling degree) ([7]; Rate 125 g a.i./ha): 0%; Pre-emergence Herbicidal Activity SETVI (growth controlling degree) ([8]; Rate 125 g a.i./ha): 0%; Pre-emergence Herbicidal Activity DIGSP (growth controlling degree) ([9]; Rate 125 g a.i./ha): 0%; Pre-emergence Herbicidal Activity ORYSA (growth controlling degree) ([11]; Rate 125 g a.i./ha): 0%; Pre-emergence Herbicidal Activity ZEAMX (growth controlling degree) ([12]; Rate 125 g a.i./ha): 0%; Pre-emergence Herbicidal Activity ECHCG (growth controlling degree) ([15]; Rate 125 g a.i./ha): 0%; Pre-emergence Herbicidal Activity ABUTH (growth controlling degree) ([20]; Rate 125 g a.i./ha): 0%
